Reference: patent publication EP2403490B1, “AN IMPROVED DRY POWDER DRUG DELIVERY SYSTEM” (MannKind Corporation, priority 2009, dated 2010)

Tests used:
Assay type in all cases: physicochemical
[1] = Powder flowability (Hausner ratio, compressibility index, angle of repose, critical orifice testing)
From the text: The compressibility index (Cl) can be calculated from the Hausner ratio (HR) as C1 = 100 × (1−(1/HR)). [formula]
FDKP microparticles either unmodified or containing a drug, for example insulin, constitute highly cohesive powders.

[2] = Geometric particle size of emitted formulations by VMGD, laser diffraction (Example 6); conditions: 56 % trans
From the text: Laser diffraction of dry powder formulations emitted from dry powder inhalers is a common methodology employed to characterize the level of de-agglomeration subjected to a powder. The methodology indicates a measure of geometric size rather than aerodynamic size as occurring in industry standard impaction methodologies. Typically, the geometric size of the emitted powder includes a volumetric distribution characterized by the median particle size, VMGD. Importantly, geometric sizes of the emitted particles are discerned with heightened resolution as compared to the aerodynamic sizes provided by impaction methods. Smaller sizes are preferred and result in greater likelihood of individual particles being delivered to the pulmonary tract. Thus, differences in inhaler de-agglomeration and ultimate performance can be easier to resolve with diffraction. In these experiments, an inhaler as specified in Example 3 and a predicate inhaler are tested with laser diffraction at pressures analogous to actual patient inspiratory capacities to determine the effectiveness of the inhalation system to de-agglomerate powder formulations. […] Reported in Table 5 are a VMGD and an efficiency of the container emptying during the testing. […]

[3] = In vitro performance DPI 2 vs MEDTONE delivery system, laser diffraction and emitted mass (Example 7); conditions: fill weight 10 mg, 4 kPa
From the text: This system includes dry powder formulations, pre-metered into single-use cartridges and inserted into a high resistance, breath-powered, re-usable MEDTONE(R) inhaler. […] In vitro powder performance for these systems was compared for various parameter of inhaler performance. For DPI 2 a single discharge per cartridge was used as compared to two discharges per cartridge in the MEDTONE(R) system.
Particle sizing by laser diffraction and quantification of emitted mass as described above were used in these experiments. A laser diffraction instrument (Sympatec HELOS) was adapted with a novel pressurized inhaler chamber to facilitate analysis of powder plumes. MTDS cartridges were discharged twice per determination versus once with DPI 2.

[4] = DPI 2, single discharge, 15 cartridges
[5] = MEDTONE® (MTDS), two discharges, 30 cartridges

O=C(O)/C=C/C(=O)NCCCCC1NC(=O)C(CCCCNC(=O)/C=C/C(=O)O)NC1=O (stereo not shown) [FDKP, bis-3,6-(N-fumaryl-4-aminobutyl)-2,5-diketopiperazine] showed an angle of repose [1] of 40 °, a VMGD ([2]; DPI 2, SSA 55 m2/g, pressure drop 4 kPa) of 6.800 micron and a VMGD ([2]; MEDTONE®, SSA 55, 4 kPa) of 21.200 micron. The “Ave. Geometric SD” value [3, 4] was 3.79 µm, the “Ave. VMGD” value [3, 4] was 6.84 µm and the “Ave. Geometric SD” value [3, 5] was 2.94 µm. For the same compound, the “Ave. VMGD” value [3, 5] was 21.21 µm.
